The numbers were not newly measured in patent US10293048B2, “Pharmaceutical compositions comprising boronic acid compounds” (DR. REDDY'S LABORATORIES LIMITED, priority 2012, dated 2019), which cites them from elsewhere.

Molecules are shown by their SMILES. Where two headings read alike, the source gives them in different places.

For the data set the following is noted: 1.3 mM in 2% ethyl alcohol/98% normal saline pH 2.8, 25° C., 14 days.

In the case of `CC(C)C[C@H](NC(=O)[C@H](Cc1ccccc1)NC(=O)c1cnccn1)B(O)O` [bortezomib, [(1R)-3-methyl-1-[[(2S)-1-oxo-3-phenyl-2-[(pyrazinylcarbonyl)amino]propyl]amino]butyl]boronic acid], the degradation runs as follows: (containing 0.1% of ascorbic acid) 21.8%; (no ascorbic acid) 5.9%.
